Consider twelve molecules from patent publication US4275076A, “Substituted naphthoic acids” (American Cyanamid Company, priority 1980, dated 1981).

The test system of data set [1] is collagenase. The conditions noted are these: in words; cited from earlier work.
The target of data set [2] is T1, human skin fibroblast collagenase (Homo sapiens, UniProt P03956).
T1 construct: endogenous in cells; host or cells: human skin fibroblasts
T1 sequence (P03956 100-469): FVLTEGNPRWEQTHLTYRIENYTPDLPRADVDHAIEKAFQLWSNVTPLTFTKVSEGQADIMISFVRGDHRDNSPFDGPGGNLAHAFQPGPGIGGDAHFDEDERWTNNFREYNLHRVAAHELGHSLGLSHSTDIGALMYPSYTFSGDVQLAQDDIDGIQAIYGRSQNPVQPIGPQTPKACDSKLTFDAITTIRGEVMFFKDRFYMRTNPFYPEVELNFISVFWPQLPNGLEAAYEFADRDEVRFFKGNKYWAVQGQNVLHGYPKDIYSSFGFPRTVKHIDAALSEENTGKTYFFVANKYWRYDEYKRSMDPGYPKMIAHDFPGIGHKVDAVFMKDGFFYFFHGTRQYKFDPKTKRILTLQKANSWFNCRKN
Put plainly: Collagenase Assay, Test Code 006 (degradation of 14C-labeled native collagen fibrils). The conditions noted are these: 30 μg./ml., 37° C., 16 hours; based on the 0% value for the enzyme control. The data set is classed as biochemical. The method, then:
An active inhibitor would inhibit the degradation of the collagen fibril; (iii) Leukocyte Neutral Proteases Inhibitor Assay--This test measures the ability of neutral proteases derived from human leukocytes to degrade radiolabeled proteoglycans entrapped in polyacrylamide beads.
(i) Collagenase Assay--Test Code 006
Collagenase assays were performed by a modification of the method of Harper, et al., Biochem., 10, 3035 (1971). In a typical assay (total volume of 0.45 ml.), 100 μl. of the activated enzyme was added to the ^14 C-labeled collagen fibrils (250 μl.) followed by 100 μl. of 50 mM cacodylate, pH 7.4, containing 5 mM calcium chloride. After incubation at 37° C. for 16 hours, the tubes were centrifuged in a Beckman microfuge for five minutes at full speed. An aliquot (200 μl.) of the supernatant, representing collagenase digestion products of the fibril, was assayed for radioactivity. The effect of the test compound on collagen degradation by collagenase was examined as follows:
The test compound (in distilled water) was added at a test concentration of 30 μg./ml. to the assay tubes containing active collagenase (total volume 450 μl.) and after 16 hours the amount of radioactivity in the supernatant was determined. Appropriate blanks and trypsin controls were run in parallel.
The activities are expressed as % inhibition (lowering) of collagenase activity, i.e. based on the 0% value for the enzyme control.

A further data set relates to corneal ulcerations. The conditions noted are these: directly applied to the eye, alkali burned rabbit; cited from earlier work.
The subject of data set [3] is collagenase. The conditions noted are these: in words; collagenase or a proteinase contaminant in the collagenase preparation; cited from earlier work.
Another data set deals with corneal ulceration. The conditions noted are these: human; cited from earlier work.
For data set [4] the following is noted: compared with cysteine; cited from earlier work.

In the case of `c1cnc2c(c1)ccc1cccnc12` [1,10-phenanthroline], the collagenase inhibition entry in the data set on collagenase [1] was “collagenase inhibitors”.

A word on the inhibition: it is the drop in the measured response relative to a control, in per cent. Read a low inhibition as little suppression. Consider `CCOC(=O)c1cc(O)c2cc(NC(=O)c3cccc(NC(=O)Nc4cccc(C(=O)Nc5ccc6cc(C(=O)OCC)cc(O)c6c5)c4)c3)ccc2c1` [6,6'-[Ureylenebis(m-phenylenecarbonylimino)]bis[4-hydroxy-2-naphthoic acid] diethyl ester], for which, in data set [2], the inhibition at 30 µg/mL was determined as 57%.

For the molecule `O=C(Nc1cccc(C(=O)Nc2ccc3cc(C(=O)O)cc(O)c3c2)c1)Nc1cccc(C(=O)Nc2ccc3cc(C(=O)O)cc(O)c3c2)c1` [6,6'-[Ureylenebis(m-phenylenecarbonylimino)]bis[4-hydroxy-2-naphthoic acid]], testing at 30 µg/mL in data set [2] gave an inhibition of 92%.

As for `CCOC(=O)c1cc(OC(C)=O)c2cc(NC(=O)c3cccc(NC(=O)Nc4cccc(C(=O)Nc5ccc6cc(C(=O)OCC)cc(OC(C)=O)c6c5)c4)c3)ccc2c1` [6,6'-[Ureylenebis(m-phenylenecarbonylimino)]bis[4-hydroxy-2-naphthoic acid]diethyl ester diacetate], the inhibition at 30 µg/mL in data set [2] was 7%.

On to `O=C([O-])CN(CCN(CC(=O)[O-])CC(=O)[O-])CC(=O)[O-].[Ca+2].[Ca+2]` [Calcium ethylenediaminetetraacetate], for which, in the data set on corneal ulcerations, the frequency of ulceration result is “reduce the frequency of ulceration”.

For the molecule `Cc1ccc(C(=O)Nc2ccc(S(=O)(=O)O)c3cc(S(=O)(=O)O)cc(S(=O)(=O)O)c23)cc1NC(=O)c1cccc(NC(=O)Nc2cccc(C(=O)Nc3cc(C(=O)Nc4ccc(S(=O)(=O)O)c5cc(S(=O)(=O)O)cc(S(=O)(=O)O)c45)ccc3C)c2)c1` [Suramin], the “inhibiting the activity of collagenase” value in the data set on collagenase [3] is reported as “not inhibiting the action of collagenase”.

Regarding `CC(=O)N[C@@H](CS)C(=O)O` [acetylcysteine], the frequency of ulceration entry in the data set on corneal ulcerations is given as “reduce the frequency of ulceration”. For the same molecule, in the data set on corneal ulceration, the “treatment of acute and chronic corneal ulceration” value is “effective”. The stability result in data set [4] is “greater stability”.

On to `N[C@@H](CS)C(=O)O` [cysteine], for which the collagenase inhibition entry with collagenase [1] was “collagenase inhibitors”. Further, the “treatment of acute and chronic corneal ulceration” value in the data set with corneal ulceration is on record as “effective”.

Regarding `O[C@@H](CS)[C@@H](O)CS` [dithiothretol], the collagenase inhibition entry with collagenase [1] is “collagenase inhibitors”.

Take `Cc1cc(-c2ccc(/N=N/c3c(S(=O)(=O)O)cc4cc(S(=O)(=O)O)cc(N)c4c3O)c(C)c2)ccc1/N=N/c1c(S(=O)(=O)O)cc2cc(S(=O)(=O)O)cc(N)c2c1O` [trypan blue]: the “inhibiting the activity of collagenase” value with collagenase [3] was “inhibiting the activity of collagenase”.

Take sodium auriothiomalate: the collagenase inhibition entry in the data set on collagenase [1] was “collagenase inhibitors”.

Turning to “α2 -macroglobulin: Naturally occurring collagenase inhibitors include the serum components α2 -macroglobulin and β1-anticollagenase”, the collagenase inhibition result in the data set on collagenase [1] is “collagenase inhibitors”.
